According to DBAASP:
Values after ≈ are worked out from the molar mass of the structure shown. Values belong to the molecule of their own block, whether it stands above or below them.

Tests used:
Test in all cases: ≥ marks a high value that may be exact or a test limit, other limits are often not marked, values filed in µg/mL are converted to µM
[1] = system: Clavibacter michiganensis subsp. michiganensis DSM 46294
[2] = system: Pectobacterium carotovorum subsp. carotovorum DSM 30168
[3] = system: Pseudomonas corrugata DSM 7228
[4] = system: Pseudomonas syringae pv. syringae DSM 10604
[5] = system: Pseudomonas syringae pv. tomato DC3000
[6] = system: Xanthomonas vesicatoria DSM 50861
[7] = system: Bacillus subtilis ATCC 6633
[8] = system: Escherichia coli ATCC 25922
[9] = system: Klebsiella pneumoniae ATCC 10031
[10] = system: Micrococcus luteus ATCC 10240
[11] = system: Pseudomonas aeruginosa ATCC 27853
[12] = system: Salmonella enterica subsp. enterica serovar Typhimurium ATCC 14028
[13] = system: Shigella dysenteriae ATCC 9752
[14] = system: Staphylococcus aureus ATCC 6538P
[15] = system: Staphylococcus epidermidis ATCC 12228
[16] = system: Bacillus anthracis Sterne 34F2
[17] = system: Bacillus subtilis ATCC 9372
[18] = system: Burkholderia thailandensis
[19] = system: Escherichia coli K-12
[20] = system: Staphylococcus aureus USA 300
[21] = system: Mycobacterium tuberculosis H37Rv
[22] = system: Escherichia coli
[23] = system: Listeria innocua
[24] = system: Micrococcus luteus A270
[25] = system: Salmonella enterica subsp. enterica serovar Enteritidis
[26] = system: Bacillus subtilis 168
[27] = system: Pseudomonas aeruginosa PAO1
[28] = system: Salmonella enterica serovar Typhimurium
[29] = system: Staphylococcus aureus ATCC 25923
[30] = system: Bacillus megaterium Bm11
[31] = system: Candida albicans ATCC 10231
[32] = system: Staphylococcus aureus Cowan 1
[33] = system: Staphylococcus capitis 1
[34] = system: Yersinia pseudotuberculosis YPIII

Structure (SMILES): CC(C)C[C@H](NC(=O)[C@H](Cc1c[nH]c2ccccc12)NC(=O)CNC(=O)[C@H](CC(C)C)NC(=O)[C@@H](N)Cc1ccccc1)C(=O)N[C@@H](Cc1ccccc1)C(=O)N[C@@H](CCCCN)C(=O)N[C@@H](Cc1c[nH]c2ccccc12)C(=O)N[C@@H](C)C(=O)N[C@@H](Cc1c[nH]c2ccccc12)C(=O)N[C@@H](CCCCN)C(N)=O [FLGWLFKWAWK]
MIC [7]: 4.25 µM (≈ 6.3 µg/mL)
MIC [8]: 16.9 µM (≈ 25 µg/mL)
MIC [9]: 8.44 µM (≈ 12.5 µg/mL)
MIC [10]: 2.09 µM (≈ 3.1 µg/mL)
MIC [11]: > 135 µM
MIC [12]: 67.5 µM (≈ 99.9 µg/mL)
MIC [13]: 8.44 µM (≈ 12.5 µg/mL)
MIC [14]: 4.25 µM (≈ 6.3 µg/mL)
MIC [15]: 4.25 µM (≈ 6.3 µg/mL)

Structure (SMILES): CC(=O)N[C@@H](C)C(=O)N[C@@H](CCC(=O)O)C(=O)N[C@@H](CCCN=C(N)N)C(=O)N[C@H](C(=O)NCC(=O)N[C@@H](C)C(=O)NCC(=O)N[C@@H](C)C(=O)N1CCC[C@H]1C(=O)N[C@H](C(=O)N[C@@H](Cc1ccc(O)cc1)C(=O)N[C@@H](CC(C)C)C(N)=O)C(C)C)C(C)C [AERVGAGAPVYL]
MIC [16]: ≥ 100 µM
MIC [17]: ≥ 100 µM
MIC [18]: ≥ 50 µM

Structure (SMILES): CSCC[C@H](N)C(=O)N[C@@H](CC(C)C)C(=O)N[C@H](C(=O)N[C@@H](C)C(=O)N[C@@H](CCC(=O)O)C(=O)N[C@@H](CCC(=O)O)C(=O)N[C@@H](CCCCN)C(=O)N[C@@H](C)C(=O)N[C@@H](C)C(=O)N[C@H](C(=O)N[C@H](C(=O)N[C@@H](C)C(=O)N[C@@H](Cc1ccccc1)C(=O)O)[C@@H](C)O)C(C)C)[C@@H](C)O [MLTAEEKAAVTAF]
MIC [22]: 4 µM (≈ 5.53 µg/mL)
MIC [23]: 6 µM (≈ 8.29 µg/mL)
MIC [24]: 4 µM (≈ 5.53 µg/mL)
MIC [25]: 6 µM (≈ 8.29 µg/mL)

Structure (SMILES): CC(C)C[C@H](NC(=O)[C@H](CC(C)C)NC(=O)[C@H](CCCCN)NC(=O)CNC(=O)[C@H](CC(C)C)NC(=O)[C@H](CC(C)C)NC(=O)[C@H](CO)NC(=O)[C@H](CC(C)C)NC(=O)[C@H](CC(C)C)NC(=O)[C@@H]1CCCN1C(=O)[C@H](CC(C)C)NC(=O)[C@H](CC(C)C)NC(=O)CN)C(N)=O [GLLPLLSLLGKLL]
MIC [26]: 3.12 µM (≈ 4.21 µg/mL)
MIC [19]: 25 µM (≈ 33.7 µg/mL)
MIC [27]: > 100 µM
MIC [20]: 1.56 µM (≈ 2.1 µg/mL)

Structure (SMILES): CC(C)C[C@H](NC(=O)[C@H](CCC(=O)O)NC(=O)[C@@H](NC(=O)[C@H](CC(=O)O)NC(=O)[C@H](CCCCN)NC(=O)[C@H](CC(N)=O)NC(=O)[C@H](C)NC(=O)[C@H](CCCCN)NC(=O)[C@H](CCCCN)NC(=O)CNC(=O)[C@H](CCCCN)NC(=O)[C@@H](N)CO)C(C)C)C(=O)N[C@@H](C)C(=O)N[C@@H](CCCN=C(N)N)C(=O)NCC(=O)O [SKGKKANKDVELARG]
MIC [16]: ≥ 100 µM
MIC [17]: ≥ 100 µM
MIC [18]: ≥ 50 µM

Structure (SMILES): CC[C@H](C)[C@H](NC(=O)CNC(=O)[C@H](C)NC(=O)[C@H](CC(C)C)NC(=O)[C@@H](NC(=O)[C@H](CCCN=C(N)N)NC(=O)CNC(=O)[C@@H](NC(=O)[C@H](CC(C)C)NC(=O)[C@@H]1CCCN1C(=O)[C@H](CC(C)C)NC(=O)[C@@H](N)Cc1ccccc1)[C@@H](C)CC)C(C)C)C(=O)N[C@@H](CC(C)C)C(N)=O [FLPLIGRVLAGIL]
MIC [30]: 2.5 µM (≈ 3.45 µg/mL)
MIC [31]: 2.5 µM (≈ 3.45 µg/mL)
MIC [8]: > 40 µM
MIC [32]: 2.5 µM (≈ 3.45 µg/mL)
MIC [33]: 5 µM (≈ 6.9 µg/mL)
MIC [34]: 20 µM (≈ 27.6 µg/mL)

Continued, values first:

MIC [1]: 0.989 µM (≈ 2.5 µg/mL)
MIC [2]: 3.96 µM (≈ 10 µg/mL)
MIC [3]: 3.96 µM (≈ 10 µg/mL)
MIC [4]: 3.96 µM (≈ 10 µg/mL)
MIC [5]: 3.96 µM (≈ 10 µg/mL)
MIC [6]: 0.989 µM (≈ 2.5 µg/mL)
Structure (SMILES): CC[C@H](C)[C@H](NC(=O)[C@H](C)NC(=O)[C@H](CC(C)C)NC(=O)[C@H](CCCN=C(N)N)NC(=O)[C@H](CC(C)C)NC(=O)[C@@H](NC(=O)[C@H](CCCN=C(N)N)NC(=O)[C@H](CC(C)C)NC(=O)[C@@H](NC(=O)[C@H](CC(C)C)NC(=O)[C@H](CCCN=C(N)N)NC(=O)[C@H](CCCN=C(N)N)NC(=O)[C@@H](N)CCCCN)[C@@H](C)CC)[C@@H](C)CC)C(=O)N[C@@H](CCCN=C(N)N)C(=O)N[C@H](C(=O)N[C@@H](CC(C)C)C(=O)N[C@H](C(=O)N[C@@H](CCCCN)C(=O)N[C@@H](CCCCN)C(=O)N[C@@H](CCCN=C(N)N)C(N)=O)C(C)C)[C@@H](C)CC [KRRLILRILRLAIRILVKKR]

MIC [19]: ≥ 60 µM
MIC [20]: ≥ 60 µM
Structure (SMILES): CC[C@H](C)[C@H](NC(=O)[C@H](CCCN=C(N)N)NC(=O)[C@H](CCC(N)=O)NC(=O)[C@@H](NC(=O)[C@@H](NC(=O)[C@H](CCCN=C(N)N)NC(=O)[C@H](CCCCN)NC(=O)[C@H](Cc1ccccc1)NC(=O)[C@H](CCC(=O)O)NC(=O)CN)[C@@H](C)CC)C(C)C)C(=O)N[C@@H](CCCCN)C(=O)N[C@@H](CC(=O)O)C(=O)N[C@@H](Cc1ccccc1)C(=O)N[C@@H](CC(C)C)C(=O)N[C@@H](CCCN=C(N)N)C(=O)N[C@@H](CC(N)=O)C(=O)N[C@@H](CC(C)C)C(=O)N[C@H](C(N)=O)C(C)C [GEFKRIVQRIKDFLRNLV]

MIC [21]: ≥ 87.4 µM
Structure (SMILES): C[C@H](NC(=O)[C@@H]1CCCN1C(=O)[C@H](CCC(=O)O)NC(=O)[C@H](CCC(N)=O)NC(=O)[C@H](CCCCN)NC(=O)[C@@H]1CCCN1C(=O)[C@H](C)NC(=O)[C@@H]1CCCN1C(=O)[C@H](CCCCN)NC(=O)[C@@H]1CCCN1C(=O)[C@H](CCCCN)NC(=O)[C@@H](NC(=O)[C@@H](NC(=O)[C@H](CCCN=C(N)N)NC(=O)[C@@H]1CCCN1C(=O)[C@H](CCCCN)NC(=O)[C@@H](N)CCCN=C(N)N)[C@@H](C)O)[C@@H](C)O)C(=O)N[C@H](C(=O)N[C@@H](CCC(=O)O)C(=O)N[C@@H](CCC(=O)O)C(=O)O)[C@@H](C)O [RKPRTTKPKPAPKQEPATEE]

MIC [8]: 21.7 µM (≈ 32 µg/mL)
MIC [27]: 43.5 µM (≈ 64 µg/mL)
MIC [28]: 21.7 µM (≈ 32 µg/mL)
MIC [29]: 43.5 µM (≈ 64 µg/mL)
Structure (SMILES): CC[C@H](C)[C@H](NC(=O)[C@@H](NC(=O)[C@H](CS)NC(=O)[C@@H](NC(=O)[C@H](CCCN=C(N)N)NC(=O)[C@H](CS)NC(=O)[C@H](CCCN=C(N)N)NC(=O)[C@H](CC(C)C)NC(=O)[C@H](CCC(N)=O)NC(=O)[C@@H](N)C(C)C)C(C)C)C(C)C)C(=O)N[C@@H](CCCN=C(N)N)C(=O)N[C@@H](CCCCN)C(=O)O [VQLRCRVCVIRK]
